# Values quoted from earlier work as cited in patent publication US9622997B2, “Methods for treating insomnia” (Lynn Health Science Institute, Inc., priority 2012, dated 2017).
# Like-named read-outs stand apart in the source and are kept apart here.
# Assays:
# [1] = system: 2 hour phase-advance study population; conditions: cited from earlier work; for TST: ↑ increase compared to placebo; for WASG: ↓ decrease compared to placebo
# [2] = system: First-night effect (no PA) study population; conditions: cited from earlier work; for TST: ↑ increase compared to placebo; for WASG: ↓ decrease compared to placebo, NS
# [3] = system: 3 hour phase-advance study population; conditions: 6 mg, cited from earlier work
# [4] = system: 2 hour phase-advance study population; conditions: ↓ decrease compared to placebo, cited from earlier work
# [5] = system: 3 hour phase-advance study population; design: TST: unit not given here; conditions: cited from earlier work; for TST: ↑ increase compared to placebo; for WASG: ↓ decrease compared to placebo
# [6] = system: 4 hour phase-advance study population; conditions: 10 mg, cited from earlier work
# [7] = system: 4 hour phase-advance study population; conditions: 10 mg, cited from earlier work; remark: listed apart in the source
# [8] = recent study; cited from earlier work
smiles,measurement,setting,value
CC(=O)N(C)c1cccc(-c2ccnc3c(C(=O)c4cccs4)cnn23)c1 [Indiplon],TST,[1]; 10 mg,↑ 11.6
same,TST,[1]; 20 mg,↑ 20.6
same,WASG,[1]; 20 mg,↓ 7.4 min
same,WASG,"[1]; NS, 10 mg",↓ 1.2^NS min
CCC(=O)NCC[C@@H]1CCc2ccc3c(c21)CCO3 [Ramelteon],TST,[2]; 8 mg,↑ 17.1
same,TST,[2]; 16 mg,↑ 13.4
same,WASG,[2]; 8 mg,↓ 5.0^NS min
same,WASG,[2]; 16 mg,↓ 2.5^NS min
CN(C)CCC=C1c2ccccc2COc2ccccc21 [Doxepin],TST,[3]; ↑ increase compared to placebo,↑ 51.1
same,SOL,[3]; ↓ decrease compared to placebo,↓ 15.9
same,WASG,[3]; ↓ decrease compared to placebo,↓ 40.0 min
Cc1ccc(-c2nc3ccc(C)cn3c2CC(=O)N(C)C)cc1 [Zolpidem],WASG,"[4]; zolpidem 10 mg, listed as zolpidem",9.4 min
same,WASG,[4]; zolpidem 10 mg,↓ 9.4 min
same,TST,[5]; 10 mg,↑ 35.7
same,TST,[5]; 15 mg,↑ 37.3
same,TST,"[5]; NS, 5 mg",↑ 35.6^NS
same,TST,"[5]; NS, 20 mg",↑ 12.8^NS
same,WASG,[5]; 20 mg,↓ 32.3 min
same,WASG,"[5]; NS, 5 mg",↓ 22.5^NS min
same,WASG,"[5]; NS, 10 mg",↓ 31.2^NS min
same,WASG,"[5]; NS, 15 mg",↓ 26.9^NS min
same,TST,[6]; ↑ increase compared to placebo,↑ 52.8
same,WASG,[6]; ↓ decrease compared to placebo,↓ 35.1 min
same,TST,[7]; ↑ increase compared to placebo,↑ 47.8
same,WASG,[7]; ↓ decrease compared to placebo,↓ 24.7 min
same,effect on sleep related GER (acid contact time),[8],markedly prolonging acid contact time
CN1C(=O)C(O)N=C(c2ccccc2)c2cc(Cl)ccc21 (stereo not drawn) [Temazepam],WASG,"[4]; NS, temazepam 15 mg",↓ 7.0^NS min
